Test results from patent publication US8399436B2, “N-pyrazolyl carboxamides as CRAC channel inhibitors” (Glaxo Group Limited, priority 2009, dated 2013).
Structures can show the parent of a compound that is named as a salt.

Molecular target: ICRAC current (calcium release activated calcium channel) (Homo sapiens, UniProt Q96D31)
Type: cell-based
Conditions: Jurkat E6-1 cells; at a final assay concentration of 15 μM
Procedure: This ICRAC assay uses the SERCA inhibitor thapsigargin to produce calcium depletion and activate an ICRAC current. […] Changes in intracellular calcium levels are determined by the inclusion of the calcium sensitive fluorescent dye Fluo-4 and the use of the FLIPR detection system. Inhibitors of ICRAC would be expected to decrease the calcium influx upon calcium add-back, thus reducing fluorescent signal.
Jurkat E6-1 is an established immortalised T lymphocyte cell line previously shown to express a functional ICRAC current. Jurkat cells grow in suspension, are cultured in DMEM+10% FBS, maintained in T175 flasks at 37° C./5% CO2, and are subcultured twice a week with either 1:10-1:20 splits. 1 confluent T175 yields 100 ml of approximately 2×10^6 cells/ml.
Loading buffer contains; NaCl 145 mM, KCl 2.5 mM, HEPES 10 mM, Glucose 10 mM, MgCl2 1.2 mM, made up with water, then pH adjusted to 7.4 using NaOH 1 M. Finally Fluo-4AM & brilliant black are added to give a final assay concentration of 2 μM and 250 μM respectively.
The required seeding density for a 384 plate is 20,000 cells per well. […] Plates are then transferred to the FLIPR which initially measures baseline fluorescence, followed by any increase in fluorescence evoked by the online addition of a 6 mM (1.2 mM FAC) calcium solution. […]

Chain of ICRAC current (calcium release activated calcium channel) (Q96D31 whole entry): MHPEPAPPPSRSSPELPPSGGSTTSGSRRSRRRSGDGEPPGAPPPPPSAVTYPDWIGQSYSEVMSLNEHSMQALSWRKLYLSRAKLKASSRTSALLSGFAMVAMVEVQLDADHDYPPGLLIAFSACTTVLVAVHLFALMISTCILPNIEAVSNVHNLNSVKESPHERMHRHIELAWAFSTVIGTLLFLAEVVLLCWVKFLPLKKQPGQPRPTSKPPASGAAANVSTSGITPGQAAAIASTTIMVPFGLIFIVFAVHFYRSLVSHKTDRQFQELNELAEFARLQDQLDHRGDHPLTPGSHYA
Chain of ICRAC current (calcium release activated calcium channel) (Q13586 23-685, further chain): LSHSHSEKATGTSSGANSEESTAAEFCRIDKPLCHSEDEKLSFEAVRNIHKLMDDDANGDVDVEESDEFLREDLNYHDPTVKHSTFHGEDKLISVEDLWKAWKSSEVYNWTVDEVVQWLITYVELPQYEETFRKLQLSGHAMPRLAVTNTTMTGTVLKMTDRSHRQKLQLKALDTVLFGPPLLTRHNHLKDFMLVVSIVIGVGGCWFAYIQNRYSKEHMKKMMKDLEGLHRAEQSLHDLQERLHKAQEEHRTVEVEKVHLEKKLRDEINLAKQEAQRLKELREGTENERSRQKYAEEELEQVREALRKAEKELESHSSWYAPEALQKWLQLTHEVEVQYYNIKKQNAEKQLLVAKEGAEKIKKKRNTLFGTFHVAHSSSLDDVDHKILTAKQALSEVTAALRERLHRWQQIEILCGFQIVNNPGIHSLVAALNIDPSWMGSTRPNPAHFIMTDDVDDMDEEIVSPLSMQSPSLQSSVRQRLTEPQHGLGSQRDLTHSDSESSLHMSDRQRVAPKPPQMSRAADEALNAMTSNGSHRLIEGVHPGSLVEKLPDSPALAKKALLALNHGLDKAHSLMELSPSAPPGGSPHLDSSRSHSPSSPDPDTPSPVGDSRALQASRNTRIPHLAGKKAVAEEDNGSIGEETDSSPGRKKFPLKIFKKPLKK

| Structure (SMILES) | pIC50 |
| --- | --- |
| O=C(c1c(F)cccc1F)N(COP(=O)(O)O)c1ccn(Cc2c(F)cccc2C(F)(F)F)n1 [Example 187, [[(2,6-Difluorophenyl)carbonyl](1-{[2-fluoro-6-(trifluoromethyl)phenyl]methyl}-1H-pyrazol-3-yl)amino]methyl dihydrogen phosphate disodium salt] | < 4.8 |
| O=C(Nc1ccn(Cc2ccc(OP(=O)([O-])[O-])cc2C(F)(F)F)n1)c1c(F)cccc1F.[Na+].[Na+] [Example 186, 4-[(3-{[(2,6-Difluorophenyl)carbonyl]amino}-1H-pyrazol-1-yl)methyl]-3-(trifluoromethyl)phenyl dihydrogen phosphate disodium salt] | 4.9 |
